Data reported in patent publication US20020052295A1, “Diacyl derivatives of propylene diamine having herbicidal activity” (priority 1999, published 2002).

Legend:
Details in all cases: lowest tested rate giving 80% or greater inhibition, approx. 14 days after planting and treating, greenhouse
ABUTH = assay: Pre-emergence herbicidal activity on ABUTH (velvetleaf); assay type: in vivo, Abutilon theophrasti
Outline: (§1)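 GR80 values come from percent inhibition relative to untreated plants, rated roughly 14 days after planting and treating, with rates up to typically 1000 g/ha. Compound was sprayed onto the soil over freshly covered seeds as a dilution in 50:50 acetone/water; pots kept in greenhouse at 30/21° C. day/night after 0.64 cm overhead watering.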

SOLNI = assay: Pre-emergence herbicidal activity on SOLNI (black nightshade); assay type: in vivo, Solanum nigrum
Outline: as §1

AMARE = assay: Pre-emergence herbicidal activity on AMARE (redroot pigweed); assay type: in vivo, Amaranthus retroflexus
Outline: as §1

DATST = assay: Pre-emergence herbicidal activity on DATST (jimsonweed); assay type: in vivo, Datura stramonium
Outline: as §1

CHEAL = assay: Pre-emergence herbicidal activity on CHEAL (common lambsquarters); assay type: in vivo, Chenopodium album
Outline: as §1

CONAR = assay: Pre-emergence herbicidal activity on CONAR (field bindweed); assay type: in vivo, Convolvulus arvensis
Description: (§2) All such uses, and the biological activity enabling such uses, are embraced by the term “herbicidal” herein. Tables 15 and 16 summarize results of tests conducted as described below to determine the pre-emergence herbicidal activity, in the form of a GR80 value, of illustrative compounds of this invention. […] Where herbicidal activity was evident but 80% inhibition was not achieved at the highest rate tested (typically 1000 g/ha), an asterisk (*) is shown in the following tables. Herbicidal activity evident in the form of symptoms of phytotoxicity, in the absence of at least 80% inhibition at any rate, is indicated in the tables by “phyto”. A blank cell in the following tables indicates no herbicidal or phytotoxic response at any rate tested.
(§3) The pre-emergence tests were conducted by the following procedure. Topsoil was sieved to pass through a 1.27 cm screen. Fertilizer was added to the topsoil and the mixture was then sterilized by heating. The topsoil mixture was placed in a pot and compacted to a depth of 1.0 to 1.25 cm from the top of the pot. Seeds of each of several monocotyledonous and dicotyledonous annual plant species were placed on top of the soil. Additional soil was subsequently placed over the seeds to level-fill the pot. A known amount of each test compound dissolved or suspended in an appropriate organic solvent was diluted with a 50:50 mix of acetone and water and applied to the surface of the soil. After treatment the plants were placed in a greenhouse with a 30/21° C. day/night temperature regime where they received 0.64 cm of overhead irrigation. All subsequent watering consisted of a light overhead mist and/or subirrigation as needed for germination and growth.
(§4) Approximately 14 days after planting and treating, the plants were observed and herbicidal efficacy recorded as percent inhibition by comparison with untreated plants.
(§5) The plant species usually regarded as weeds which were utilized in the tests are identified in the tables below according to the following legend, in which “d” indicates a dicotyledonous species and “m” a monocotyledonous species. All monocotyledonous species included in the tests herein are grasses.

POROL = assay: Pre-emergence herbicidal activity on POROL (common purslane); assay type: in vivo, Portulaca oleracea
Outline: as §1

CIRAR = assay: Pre-emergence herbicidal activity on CIRAR (canada thistle, seedling); assay type: in vivo, Cirsium arvense
Outline: as §1

ECHCG = assay: Pre-emergence herbicidal activity on ECHCG (barnyardgrass); assay type: in vivo, Echinochloa crus-galli
Description: as §2, §3, §4, §5

PANMI = assay: Pre-emergence herbicidal activity on PANMI (wild proso millet); assay type: in vivo, Panicum miliaceum
Outline: as §1

SORHA = assay: Pre-emergence herbicidal activity on SORHA (johnsongrass, seedling); assay type: in vivo, Sorghum halepense
Description: as §2, §3, §4, §5

SETFA = assay: Pre-emergence herbicidal activity on SETFA (giant foxtail); assay type: in vivo, Setaria faberi
Outline: as §1

PANDI = assay: Pre-emergence herbicidal activity on PANDI (fall panicum); assay type: in vivo, Panicum dichotomiflorum
Outline: as §1

SORVU = assay: Pre-emergence herbicidal activity on SORVU (shattercane); assay type: in vivo, Sorghum vulgare
Description: as §2, §3, §4, §5

BRAPP = assay: Pre-emergence herbicidal activity on BRAPP (broadleaf signalgrass); assay type: in vivo, Brachiaria platyphylla
Description: as §2, §3, §4, §5

DIGSA = assay: Pre-emergence herbicidal activity on DIGSA (large crabgrass); assay type: in vivo, Digitaria sanguinalis
Outline: as §1

Structure (SMILES)	Pre-emergence activity (GR80) on ABUTH (ABUTH)	Pre-emergence activity (GR80) on SOLNI (SOLNI)	Pre-emergence activity (GR80) on AMARE (AMARE)	Pre-emergence activity (GR80) on DATST (DATST)	Pre-emergence activity (GR80) on CHEAL (CHEAL)	Pre-emergence activity (GR80) on CONAR (CONAR)	Pre-emergence activity (GR80) on PORAL (POROL)	Pre-emergence activity (GR80) on CIRAR (CIRAR)	Pre-emergence activity (GR80) on ECHCG (ECHCG)	Pre-emergence activity (GR80) on PANMI (PANMI)	Pre-emergence activity (GR80) on SORHA (SORHA)	Pre-emergence activity (GR80) on SETFA (SETFA)	Pre-emergence activity (GR80) on PANDI (PANDI)	Pre-emergence activity (GR80) on SORVU (SORVU)	Pre-emergence activity (GR80) on BRAPP (BRAPP)	Pre-emergence activity (GR80) on DIGSA (DIGSA)
CC(CNC(=O)c1cccc(C(F)(F)F)c1)NC(=O)c1cccc(Cl)c1F (stereo not drawn) [Example 49]	64 g/ha	125 g/ha	64 g/ha	64 g/ha	64 g/ha	750 g/ha	64 g/ha	64 g/ha	500 g/ha	125 g/ha	250 g/ha	125 g/ha	64 g/ha	* (Where herbicidal activity was evident but 80% inhibition was not achieved at the highest rate tested (typically 1000 g/ha), an asterisk (*) is shown)	500 g/ha	64 g/ha
CC(CNC(=O)c1cccc(C(F)(F)F)c1)NC(=O)c1cccc(Cl)c1Cl (stereo not drawn) [Example 50]	750 g/ha	125 g/ha	32 g/ha	125 g/ha	32 g/ha	250 g/ha	32 g/ha	64 g/ha	* (Where herbicidal activity was evident but 80% inhibition was not achieved at the highest rate tested (typically 1000 g/ha), an asterisk (*) is shown)	1000 g/ha	1000 g/ha	750 g/ha	250 g/ha	* (Where herbicidal activity was evident but 80% inhibition was not achieved at the highest rate tested (typically 1000 g/ha), an asterisk (*) is shown)	500 g/ha	125 g/ha
Cc1c(Cl)cccc1C(=O)NC(C)CNC(=O)c1cccc(C(F)(F)F)c1 (stereo not drawn) [Example 51]	250 g/ha	125 g/ha	125 g/ha	250 g/ha	64 g/ha	1000 g/ha	64 g/ha	125 g/ha	* (Where herbicidal activity was evident but 80% inhibition was not achieved at the highest rate tested (typically 1000 g/ha), an asterisk (*) is shown)	250 g/ha	1000 g/ha	250 g/ha	250 g/ha	phyto	500 g/ha	64 g/ha
CC(CNC(=O)c1cccc(C(F)(F)F)c1)NC(=O)c1cccc(OC(F)(F)F)c1 (stereo not drawn) [Example 72]	1000 g/ha	–	125 g/ha	1000 g/ha	500 g/ha	* (Where herbicidal activity was evident but 80% inhibition was not achieved at the highest rate tested (typically 1000 g/ha), an asterisk (*) is shown)	250 g/ha	500 g/ha	phyto	phyto	* (Where herbicidal activity was evident but 80% inhibition was not achieved at the highest rate tested (typically 1000 g/ha), an asterisk (*) is shown)	500 g/ha	500 g/ha	phyto	1000 g/ha	250 g/ha
